Reference: US20210087167A1, “ASK1 INHIBITOR COMPOUNDS AND USES THEREOF” (SEAL ROCK THERAPEUTICS, INC., priority 2017, published 2021)

Legend:
ASK1 = molecular target: T1, ASK1 (Homo sapiens, UniProt Q99683); assay: ASK1 Kinase Assay (Promega ASK1 Kinase Enzyme System, ADP-Glo); format: biochemical; conditions: enzyme 50 nM, myelin basic protein 1 μg/ml, ATP 10 μM
T1 construct: purchased Promega V3881
Method: The ASK1 enzymatic assay was run following Promega ASK1 Kinase Enzyme System (Cat #V3881). The kit provides the protocol, enzymes and all reagents necessary to run an assay.
Firstly, the compounds, enzyme, substrate and ATP were diluted in provided assay buffer. The final concentration of the enzyme was 50 nM, substrate (Myelin basic protein) 1 μg/ml and ATP 10 μM. The compound and the enzyme were pre-incubated in a 384 well white solid bottom plate (Greiner, Cat #784075) for 10 minutes. After incubation, the substrate and ATP were added and incubated for further 60 minutes. After 60 minutes, ADP-Glo™ was added and plate was incubated for another 40 minutes. After 40 minutes, Kinase Detection Reagent was added and the plate was incubated for 45 minutes. After 45 minutes, plate was read on Perkin Elmer EnVision using luminescence read (0.5 seconds/well).

[1] = system: LPS-induced TNFalpha in human PBMCs; assay: Inhibition of LPS-induced TNFalpha in human PBMCs (ELISA); format: cell-based; conditions: PBMC, 100 ng/ml LPS, 6 hr, read-out: TNFa Inhibition IC50
Method: Cryopreserved human PBMCs were obtained from AllCells (cat #PB003F). After thawing/dilution protocols using RPMI medium supplemented with 5% FBS (heat inactivated), 100 ul/well of 1×10^6 cells/ml were plated into 96 well tissue culture plates (Corning). Cells were then pre-incubated for 1 hr at 37° C. in humidified 5% CO2 and 95% air with test compounds diluted in DMSO (final DMSO concentration 0.3%). Each compound was tested at 10 concentrations in duplicate wells. After the pre-incubation, 100 ng/ml LPS (E. Coli; Sigma) in RPMI media with 5% FBS was added for a 6 hr incubation at 37° C. in humidified 5% CO2 and 95% air. Controls on each plate included cells and LPS only, cells and media only (no LPS), and media only. After the 6 hr incubation, plates were centrifuged and the supernatants transferred to a new plate and frozen for subsequent TNFalpha analysis. Human TNFalpha was analyzed by ELISA according to the manufacturer's instructions (BD Sciences, BD OptEIAm Cat #550610) and analyzed on a SpectraMax M series (Molecular Devices) microplate reader at OD 450 nm. IC50s were calculated using XLFit4 curve fitting software (IDBS) and a 4-parameter one-site sigmoid dose response fit.

T1 sequence (Q99683 649-946 limits assumed): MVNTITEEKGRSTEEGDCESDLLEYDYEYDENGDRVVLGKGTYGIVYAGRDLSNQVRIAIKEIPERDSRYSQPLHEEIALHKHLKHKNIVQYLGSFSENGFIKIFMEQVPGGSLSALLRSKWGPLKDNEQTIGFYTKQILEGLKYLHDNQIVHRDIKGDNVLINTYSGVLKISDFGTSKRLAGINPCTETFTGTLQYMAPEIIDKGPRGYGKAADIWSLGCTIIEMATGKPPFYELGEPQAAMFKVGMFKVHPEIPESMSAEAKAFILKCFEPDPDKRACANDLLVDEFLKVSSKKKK

IC50 (ASK1) [µM] | Compound | IC50 [1] [µM]
< 0.2 | 2-(6-(4-cyclopropyl-4H-1,2,4-triazol-3-yl)pyridin-2-yl)-5-isopropoxy-6-(pyridin-3-yl)isoindolin-1-one [Compound 70] | 
 | O=C(c1ccc2c(c1)CN(c1cccc(-c3nncn3C3CC3)n1)C2=O)N1CCOCC1 [Compound 7, 2-(6-(4-cyclopropyl-4H-1,2,4-triazol-3-yl)pyridin-2-yl)-5-(morpholine-4-carbonyl)isoindolin-1-one] | > 10
 | O=C(c1ccc2c(c1)CN(c1cccc(-c3nncn3C3CC3)n1)C2=O)N1CCC(O)CC1 [Compound 12, 2-(6-(4-cyclopropyl-4H-1,2,4-triazol-3-yl)pyridin-2-yl)-5-(4-hydroxypiperidine-1-carbonyl)isoindolin-1-one] | > 10
 | CC1(O)CCN(C(=O)c2ccc3c(c2)CN(c2cccc(-c4nncn4C4CC4)n2)C3=O)CC1 [Compound 13, 2-(6-(4-cyclopropyl-4H-1,2,4-triazol-3-yl)pyridin-2-yl)-5-(4-hydroxy-4-methylpiperidine-1-carbonyl)isoindolin-1-one] | > 10
 | CC(=O)N1CCN(C(=O)c2ccc3c(c2)CN(c2cccc(-c4nncn4C4CC4)n2)C3=O)CC1 [Compound 16, 5-(4-acetylpiperazine-1-carbonyl)-2-(6-(4-cyclopropyl-4H-1,2,4-triazol-3-yl)pyridin-2-yl)isoindolin-1-one] | > 10
 | CC(=O)NC1CCN(C(=O)c2ccc3c(c2)CN(c2cccc(-c4nncn4C4CC4)n2)C3=O)CC1 [Compound 17, N-(1-(2-(6-(4-cyclopropyl-4H-1,2,4-triazol-3-yl)pyridin-2-yl)-1-oxoisoindoline-5-carbonyl)piperidin-4-yl)acetamide] | > 10
< 0.2 | Cn1ccc(-c2ccc3c(c2)CN(c2cccc(-c4nncn4C4CC4)n2)C3=O)n1 [Compound 27] | 
 | O=C1c2cc(-c3cnc(C4CC4)cn3)ccc2CN1c1cccc(-c2nncn2C2CC2)n1 [Compound 60, 2-(6-(4-cyclopropyl-4H-1,2,4-triazol-3-yl)pyridin-2-yl)-6-(5-cyclopropylpyrazin-2-yl)isoindolin-1-one] | > 10
0.2 to 1 | O=C(Nc1cc2c(cc1F)CN(c1cccc(-c3nncn3C3CC3)n1)C2=O)C1CC1 [Compound 75, N-(2-(6-(4-cyclopropyl-4H-1,2,4-triazol-3-yl)pyridin-2-yl)-6-fluoro-3-oxoisoindolin-5-yl)cyclopropanecarboxamide] | 

Compound | IC50 (ASK1) [µM] | IC50 [1] [µM]
CN(C)c1ccc2c(c1)CN(c1cccc(-c3nncn3C3CC3)n1)C2=O [Compound 34] | < 0.2 | 
